Measured values: patent publication US8481576B2 (Abbott GmbH & Co. KG, priority 2004, dated 2013)
Structures can show the parent of a compound that is named as a salt.

Target: T1, h5-HT5A receptor (Homo sapiens, UniProt P47898)
T1 construct: expressed in transfected cells; host or cells: HEK293
Assay: [3H]5-CT binding assay h5-HT5A
Conditions: membranes from HEK293 cells expressing h5-HT5A, 2.5 nM [3H]5-CT; read-out: Binding affinity 5-HT5A (Ki)
Protocol: 1. [^3H]5-CT binding assay h5-HT5A
Membranes from HEK293-cells, which permanently express the h5-HT5A receptor gene, were incubated in 100 mM Tris-HCl-buffer (pH 7.7), containing 1 mM EDTA in the presence of 2.5 nM [^3H]5-CT (600 μl total volume). The total binding is defined as the binding which is observed when the membranes are incubated alone in the presence of the radioligand. The inhibition induced by the compound is determined by incubation of cell membranes in the presence of the radioligand, and of different concentrations of the compound of interest. Unspecific binding is defined by the binding of [^3H]5-CT, which is obtained by incubation of the membranes as for the total binding but in the presence of 10 μM methiothepine. Following an incubation of 75 minutes at 30° C. the membrane suspension is filtered through GF/B-filters, wrapped in 0.03% PEI, wherein a Skatron® harvest system is used. The radioactivity retained in the filter is quantified by liquid scintillation counting.
In both assays, different concentrations of the test substances are used, and the Ki or the IC50 values are determined.

T1 sequence (P47898 whole entry): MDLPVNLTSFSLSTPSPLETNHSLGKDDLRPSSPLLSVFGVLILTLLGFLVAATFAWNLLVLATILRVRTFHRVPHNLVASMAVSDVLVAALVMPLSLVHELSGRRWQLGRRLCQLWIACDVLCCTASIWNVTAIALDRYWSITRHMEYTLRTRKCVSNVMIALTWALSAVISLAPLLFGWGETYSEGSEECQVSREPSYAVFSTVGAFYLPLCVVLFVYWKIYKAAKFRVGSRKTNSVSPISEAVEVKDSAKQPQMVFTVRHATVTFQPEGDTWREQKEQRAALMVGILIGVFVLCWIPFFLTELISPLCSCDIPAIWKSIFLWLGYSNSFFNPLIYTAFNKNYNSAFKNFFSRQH

| Structure (SMILES) | Ki |
| --- | --- |
| COc1cccc(OC)c1CNC(=N)Nc1nc2c(s1)CCCC2 [Example 94, N-(2,6-dimethoxybenzyl)-N′-(4,5,6,7-tetrahydro-1,3-benzothiazole-2-yl)guanidine acetate] | < 0.05 µM |
| COc1cccc(OC)c1CNC(=N)Nc1nc(-c2ccc(C(C)C)cc2)cs1 [Example 95, N-(2,6-dimethoxybenzyl)-N′-[4-(4-isopropylphenyl)-1,3-thiazole-2-yl]guanidine] | 0.05 to 0.5 µM |
| COc1cccc(OC)c1CNC(=N)Nc1nc(-c2csc3ccccc23)cs1 [Example 96, N-[4-(1-benzothiene-3-yl)-1,3-thiazole-2-yl]-N′-(2,6-dimethoxybenzyl)guanidine hydrobromide] | < 0.05 µM |
| COc1cccc(OC)c1CNC(=N)Nc1nc(C2CCCCC2)cs1 [Example 97, N-(4-cyclohexyl-1,3-thiazole-2-yl)-N′-(2,6-dimethoxybenzyl)guanidine] | < 0.05 µM |
| COc1ccccc1CNC(=N)Nc1nc(-c2ccccc2F)cs1 [Example 98, N-[4-(2-fluorophenyl)-1,3-thiazole-2-yl]-N′-(2-methoxybenzyl)guanidine] | 0.05 to 0.5 µM |
| COc1ccccc1CNC(=N)Nc1nc(-c2cccc(F)c2)cs1 [Example 99, N-[4-(3-fluorophenyl)-1,3-thiazole-2-yl]-N′-(2-methoxybenzyl)guanidine] | 0.05 to 0.5 µM |
| COc1ccccc1CNC(=N)Nc1nc(-c2ccc(OC(F)(F)F)cc2)cs1 [Example 100, N-(2-methoxybenzyl)-N′-{4-[4-(trifluoromethoxy)phenyl]-1,3-thiazole-2-yl}guanidine] | < 0.05 µM |
| COc1ccccc1CNC(=N)Nc1nc(-c2ccc3c(c2)OCO3)cs1 [Example 101, N-[4-(1,3-benzodioxol-5-yl)-1,3-thiazole-2-yl]-N′-(2-methoxybenzyl)guanidine] | 0.05 to 0.5 µM |
| COc1cccc(OC)c1CNC(=N)Nc1nc(C)c(C(=O)N(C)C)s1 [Example 102, 2-{[[(2,6-dimethoxybenzyl)amino](imino)methyl]amino}-N,N,4-trimethyl-1,3-thiazole-5-carboxamide] | < 0.05 µM |
| COc1ccccc1CNC(=N)Nc1nc(-c2ccccc2C(F)(F)F)cs1 [Example 103, N-(2-methoxybenzyl)-N′-{4-[2-(trifluoromethyl)phenyl]-1,3-thiazole-2-yl}guanidine] | 0.05 to 0.5 µM |
| COc1ccccc1CNC(=N)Nc1nc(-c2ccc(NS(C)(=O)=O)cc2)cs1 [Example 104, N-{4-[2-({imino[(2-methoxybenzyl)amino]methyl}amino)-1,3-thiazole-4-yl]phenyl}methanesulfonamide] | > 0.5 µM |
| COc1cccc(OC)c1CNC(=N)Nc1nc(-c2ccccc2)ns1 [Example 105, N′-(2,6-dimethoxybenzyl)-N-(3-phenyl-1,2,4-thiadiazole-5-yl)guanidine×0.5 (2E)-But-2-endioate] | > 0.5 µM |
| COc1ccccc1CN=C(N)Nc1nc(-c2ccccc2)ns1 [Example 106, N″-(2-methoxybenzyl)-N-(3-phenyl-1,2,4-thiadiazole-5-yl)guanidine (2E)-But-2-endioate] | > 0.5 µM |
| COc1cccc(OC)c1CNC(=N)Nc1nc(-c2ccc(C(F)(F)F)cc2)cs1 [Example 107, N-(2,6-dimethoxybenzyl)-N′-{4-[4-(trifluoromethyl)phenyl]-1,3-thiazole-2-yl}guanidine] | 0.05 to 0.5 µM |
| COc1cccc(OC)c1CNC(=N)Nc1nc(-c2cccc(C(F)(F)F)c2)cs1 [Example 108, N-(2,6-dimethoxybenzyl)-N′-{4-[3-(trifluoromethyl)phenyl]-1,3-thiazole-2-yl}guanidine] | > 0.5 µM |
| COc1cccc(OC)c1CNC(=N)Nc1nc(-c2ccc(OC(F)F)cc2)cs1 [Example 109, N-{4-[4-(difluoromethoxy)phenyl]-1,3-thiazole-2-yl}-N′-(2,6-dimethoxybenzyl)guanidine hydrobromide] | 0.05 to 0.5 µM |
| COc1cccc(OC)c1CNC(=N)Nc1nc(-c2ccc(N(C)C)cc2)cs1 [Example 110, N-(2,6-dimethoxybenzyl)-N′-{4-[4-(dimethylamino)phenyl]-1,3-thiazole-2-yl}guanidine hydrobromide] | < 0.05 µM |
| COc1cc(F)ccc1-c1csc(NC(=N)NCc2c(OC)cccc2OC)n1 [Example 111, N-(2,6-dimethoxybenzyl)-N′-[4-(4-fluoro-2-methoxyphenyl)-1,3-thiazole-2-yl]guanidine] | < 0.05 µM |
| COc1ccc(F)cc1-c1csc(NC(=N)NCc2c(OC)cccc2OC)n1 [Example 112, hydrobromide] | < 0.05 µM |
| COc1cccc(OC)c1CNC(=N)Nc1nc(-c2c(OC)cccc2OC)cs1 [Example 113, N-(2,6-dimethoxybenzyl)-N′-[4-(2,6-dimethoxyphenyl)-1,3-thiazole-2-yl]guanidine] | < 0.05 µM |
| COc1cccc(OC)c1CNC(=N)Nc1nc(-c2ccc(F)c3ccccc23)cs1 [Example 114, N-(2,6-dimethoxybenzyl)-N′-[4-(4-fluoro-1-naphthyl)-1,3-thiazole-2-yl]guanidine] | < 0.05 µM |
| COc1cccc(OC)c1CNC(=N)Nc1nc(-c2ccc3c(c2)CCO3)cs1 [Example 115, N-[4-(2,3-dihydro-1-benzofuran-5-yl)-1,3-thiazole-2-yl]-N′-(2,6-dimethoxybenzyl)guanidine] | < 0.05 µM |

Second part, the compound after the results:

| Ki | Structure (SMILES) |
| --- | --- |
| < 0.05 µM | COc1cccc(OC)c1CNC(=N)Nc1nc(-c2ccc(F)cc2Cl)cs1 [Example 116, N-[4-(2-chloro-4-fluorophenyl)-1,3-thiazole-2-yl]-N′-(2,6-dimethoxybenzyl)guanidine] |
| < 0.05 µM | COc1cccc(OC)c1CNC(=N)Nc1nc(-c2ccco2)cs1 [Example 117, N-(2,6-dimethoxybenzyl)-N′-[4-(2-furyl)-1,3-thiazole-2-yl]guanidine hydrobromide] |
| < 0.05 µM | COc1cccc(OC)c1CNC(=N)Nc1nc(-c2ccc(F)cc2)c(C)s1 [Example 118, N-(2,6-dimethoxybenzyl)-N′-[4-(4-fluorophenyl)-5-methyl-1,3-thiazole-2-yl]guanidine] |
| < 0.05 µM | COc1cccc(OC)c1CNC(=N)Nc1nc(-c2c(Cl)cccc2Cl)cs1 [Example 119, N-[4-(2,6-dichlorophenyl)-1,3-thiazole-2-yl]-N′-(2,6-dimethoxybenzyl)guanidine] |
| 0.05 to 0.5 µM | COc1cccc(OC)c1CNC(=N)Nc1nc(C2CCCN2C(=O)OC(C)(C)C)cs1 (stereo not shown) [Example 120, tert-butyl 2-(2-{[[(2,6-dimethoxybenzyl)amino](imino)methyl]amino}-1,3-thiazole-4-yl)pyrrolidine-1-carboxylate] |
| < 0.05 µM | COc1cccc(OC)c1CNC(=N)Nc1nc(-c2cc(C)cs2)cs1 [Example 121, N-(2,6-dimethoxybenzyl)-N′-[4-(4-methyl-2-thienyl)-1,3-thiazole-2-yl]guanidine] |
| < 0.05 µM | COc1cccc(OC)c1CNC(=N)Nc1nc(-c2ncccn2)cs1 [Example 122, N-(2,6-dimethoxybenzyl)-N′-(4-pyrimidine-2-yl-1,3-thiazole-2-yl)guanidine hydrobromide] |
| < 0.05 µM | COc1cccc(OC)c1CNC(=N)Nc1nc(-c2ccc(Cl)cn2)cs1 [Example 123, N-[4-(5-chloropyridine-2-yl)-1,3-thiazole-2-yl]-N′-(2,6-dimethoxybenzyl)guanidine acetate] |
| < 0.05 µM | COc1cccc(OC)c1CNC(=N)Nc1nc(-c2cc(Cl)cs2)cs1 [Example 124, N-[4-(4-chloro-2-thienyl)-1,3-thiazole-2-yl]-N′-(2,6-dimethoxybenzyl)guanidine] |
| < 0.05 µM | COc1cccc(OC)c1CNC(=N)Nc1nc(CNC(=O)OC(C)(C)C)cs1 [Example 125, tert-butyl [(2-{[[(2,6-dimethoxybenzyl)amino](imino)methyl]amino}-1,3-thiazole-4-yl)methyl]carbamate] |
| < 0.05 µM | COc1cccc(OC)c1CNC(=N)Nc1nc(-c2ncc(Cl)cc2Cl)cs1 [Example 126, N-[4-(3,5-dichloropyridine-2-yl)-1,3-thiazole-2-yl]-N′-(2,6-dimethoxybenzyl)guanidine] |
| < 0.05 µM | COc1cccc(OC)c1CNC(=N)Nc1nc2c(s1)CCc1ccccc1-2 [Example 127, N-(4,5-dihydronaphtho[1,2-d][1,3]thiazole-2-yl)-N′-(2,6-dimethoxybenzyl)guanidine] |
| < 0.05 µM | COc1cccc(OC)c1CNC(=N)Nc1ncc(-c2ccc(F)cc2)s1 [Example 128, N-(2,6-dimethoxybenzyl)-N′-[5-(4-fluorophenyl)-1,3-thiazole-2-yl]guanidine] |
| 0.05 to 0.5 µM | COc1ccc(F)cc1CNC(=N)Nc1nc(-c2ccccc2)cs1 [Example 129, N-(5-fluoro-2-methoxybenzyl)-N′-(4-phenyl-1,3-thiazole-2-yl)guanidine] |
| 0.05 to 0.5 µM | COc1ccc(F)cc1CNC(=N)Nc1nc(C)cs1 [Example 130, N-(5-fluoro-2-methoxybenzyl)-N′-(4-methyl-1,3-thiazole-2-yl)guanidine fumarate] |
| < 0.05 µM | COc1cccc(OC)c1CNC(=N)Nc1nc(C(C)C)cs1 [Example 131, N-(2,6-dimethoxybenzyl)-N′-(4-isopropyl-1,3-thiazole-2-yl)guanidine] |
| < 0.05 µM | COc1cccc(Cl)c1CNC(=N)Nc1nc(-c2ccccc2)cs1 [Example 132, N-(2-chloro-6-methoxybenzyl)-N′-(4-phenyl-1,3-thiazole-2-yl)guanidine] |
| < 0.05 µM | COc1cccc(Cl)c1CNC(=N)Nc1nc(-c2ccccn2)cs1 [Example 133, N-(2-chloro-6-methoxybenzyl)-N′-(4-pyridine-2-yl-1,3-thiazole-2-yl)guanidine] |
